From patent US11179388B2, “Topical composition for treating rosacea and a method for treating rosacea with the same” (ADS THERAPEUTICS LLC, priority 2017, dated 2021) come the findings set out here.

Structures are written as SMILES.

For data set [1], the system named is pterygium patients (pterygium vascularity). Nature of the data set: Phase 2a clinical trial of nintedanib eye drop in pterygium patients. It counts as in vivo, human. How it is done: Nintedanib was formulated into an eye drop and tested in pterygium patients in a Phase 2a clinical trial to evaluate the safety and efficacy of nintedanib. The key efficacy endpoint is effects on pterygium vascularity.
The clinic trial was conducted in two stages. In stage 1, the safety, tolerability and pharmacokinetics were evaluated in a single dose escalating study. Three dose cohorts with 8 patients in each were evaluated. Cohort 1 began at the lowest concentration of 0.02% nintedanib (weight percent based on the total weight of the eye drop), followed by an increasing dose to 0.05% for Cohort 2 and then to 0.2% for Cohort 3.
In stage 2, the safety, tolerability and efficacy of the 0.2% formulation were evaluated in a randomized, double-masked, vehicle-controlled, parallel study with 28 days TID repeat ocular dosing of vehicle and 0.2% nintedanib. The patients were further followed up by 20 weeks of post-dosing observation. Ophthalmic and physical examinations were performed at screening, Day 1 and Week 2, 4, 8, 16, and 24. External photograph of the pterygium eye was taken using a digital camera and the pterygium vascularity was graded from these images at an independent image reading center. The primary objective is to evaluate ocular and systemic safety of nintedanib in pterygium patients that have moderate to severe pterygium vascularity. […]

In data set [2] the test system is Rosacea patients with moderate to severe persistent facial erythema. In words: Erythema study, Clinician Erythema Assessment (CEA) in rosacea patients. The data set is classed as in vivo, human. The text has this:
Rosacea patients with moderate to severe persistent facial erythema are selected for treatment. The erythema is graded according to the Clinician Erythema Assessment (CEA) scale with photonumeric guide. It has a five-point scale: 0: clear skin with no signs of erythema; 1: almost clear, slight redness; 2: mild erythema, definite redness; 3: moderate erythema, marked redness; 4: severe erythema, fiery redness. Patients with CEA […] are enrolled in the study.
The study is double-masked. There are 5 treatment groups for 5 cream formulations (vehicle, 0.2% nintedanib, 0.3% brimonidine, combo-1 [0.2% nintedanib and 0.3% brimonidine], and combo-2 [0.1% nintedanib and 0.15% brimonidine]) to be tested and each group will have about 20 patients. The patients are assigned to the groups in a way to make sure the base line average grade is similar among the groups. The formulations are dosed once daily for 4 weeks and the patients are further followed up for 8 weeks. The drug is administered by a physician on the first day of visit and then self-administered by the patient for the remaining 4 weeks. Patients are evaluated on day 1, week 2 and 4 during dosing. After the stop of dosing, patients are further followed up at week 8 and 12.
The effect on erythema is evaluated by taking pictures of the face. […] The tolerability of the formulations is also evaluated by assessing treatment related adverse events. The efficacy and tolerability data are analyzed by independent statisticians.

Where [3] appears, read: day 1 after dosing, cream formulations.
Where [4] appears, read: week 1, 2 and 4, during dosing, cream once daily.

With `COC(=O)c1ccc2c(c1)NC(=O)/C2=C(\Nc1ccc(N(C)C(=O)CN2CCN(C)CC2)cc1)c1ccccc1` [Nintedanib, (Z)-3-(1-(4-(N-((4-methyl-piperazin-1-yl)-methylcarbonyl)-N-methyl-amino)-phenylamino)-1-phenyl-methylene]-6-methoxycarbonyl-2-indolinone], the “safety and tolerability (stage 2)” value in data set [1] (0.2% eye drop TID 28 days, 20 weeks post-dosing observation) is “excellent with no serious adverse events”. Besides, in data set [1] (eye drop 0.02%, 0.05% and 0.2%, single dose, 8 patients per cohort), the “safety, single dose escalating study (stage 1)” value is listed as “No safety issues”. Besides, the “erythema grade after stop of treatment” value in data set [2] (after stop of dosing at week 4, week 8 and 12) was “remains lower than the baseline”. The “erythema grade reduction from baseline” value is recorded as “does not change” in data set [2] (setting [3]) and “about 1 grade” in data set [2] (setting [4]).
For the molecule `Brc1c(NC2=NCCN2)ccc2nccnc12` [brimonidine, (5-bromoquinoxalin-6-yl)-(4,5-dihydro-1H-imidazol-2-yl)-amine], the “erythema grade reduction from baseline” value in data set [2] (setting [3]) was “about 1 grade”; in data set [2] (setting [4]), “reduction remains”. The “erythema grade versus baseline after stop of treatment” value in data set [2] (week 8) is given as “slightly higher than baseline”; in data set [2] (week 12), “returns to the baseline”.
